Literature values in patent US12533348B2, “Ferroportin-inhibitors for the use in the treatment of transfusion-dependent beta-thalassemia (TDT)” (Vifor (International) AG, priority 2019, dated 2026).

Tested on: guinea pigs
Settings: intravenous administration, cited from earlier work

## O=C(NCc1ncccc1F)c1csc(CCNCc2nc3ccccc3[nH]2)n1 [VIT-2653]
Guinea pigs
  NTBI and Hb levels following exchange transfusion: significantly improved
  total iron in kidneys following transfusion: can be reduced
Transfused guinea pigs
  occurrence of changes in plasma creatinine >0.3 mg/dL (indicator of early AKI): significantly reduced
